Test results taken from PMC12117170.

Test: Intramolecular Cu-catalysed sydnonimine-alkyne click-and-release (forms 1,4-disubstituted pyrazole, releases CO2 and pyrenylmethyl urea/isocyanate): CuSO4 0.2 eq, bathophenanthroline disulfonate 0.4 eq, Na ascorbate 3 eq, triethanolamine 2 eq, 16 h; rGO filtration and aqueous work-up
Conditions: DMSO/H2O 1:1, 35.0 mM, 37.0 °C

O=C1CNC(=O)[C@H](Cc2c[nH]c3ccccc23)NC(=O)c2cccc(c2)-n2cc(cn2)CN1 [3-(sydnonimine-pyrene)benzoyl-Trp-Gly-NH-propargyl]
ring closure, isolated yield (from C#CCNC(=O)CNC(=O)[C@H](Cc1c[nH]c2ccccc12)NC(=O)c1cccc(-[n+]2cc([N-]C(=O)NCc3ccc4ccc5cccc6ccc3c4c56)on2)c1, 15-membered ring): 75%

CC(C)C[C@@H]1NC(=O)[C@H](Cc2ccccc2)NC(=O)c2cccc(c2)-n2cc(cn2)CNC1=O [3-(sydnonimine-pyrene)benzoyl-Phe-Leu-NH-propargyl]
ring closure, isolated yield (from C#CCNC(=O)[C@H](CC(C)C)NC(=O)[C@H](Cc1ccccc1)NC(=O)c1cccc(-[n+]2cc([N-]C(=O)NCc3ccc4ccc5cccc6ccc3c4c56)on2)c1, 15-membered ring): 63%

O=C1CCCCCCCCCCNC(=O)c2cccc(c2)-n2cc(cn2)CNC(=O)CCCCN1 [S6 -> CyP6]
ring closure, isolated yield (from C#CCNC(=O)CCCCNC(=O)CCCCCCCCCCNC(=O)c1cccc(-[n+]2cc([N-]C(=O)NCc3ccc4ccc5cccc6ccc3c4c56)on2)c1, 27-membered ring): 78%

C#CCNC(=O)CNC(=O)c1cccc(-[n+]2cc([N-]C(=O)NCc3ccc4ccc5cccc6ccc3c4c56)on2)c1 [S1 -> CyP1]
ring closure, isolated yield (the molecule shown is the open-chain precursor, 12-membered ring): 0%

O=C1NCCOCCOCCOCc2cnn(c2)-c2cccc1c2 [S7 -> CyP7 (50 C)]
ring closure, isolated yield (from C#CCOCCOCCOCCNC(=O)c1cccc(-[n+]2cc([N-]C(=O)NCc3ccc4ccc5cccc6ccc3c4c56)on2)c1, 18-membered ring): 81%

O=C1CCCCCCCNC(=O)c2cccc(c2)-n2cc(cn2)CN1 [S3 -> CyP3]
ring closure, isolated yield (from C#CCNC(=O)CCCCCCCNC(=O)c1cccc(-[n+]2cc([N-]C(=O)NCc3ccc4ccc5cccc6ccc3c4c56)on2)c1, 18-membered ring): 85%

CC(C)C[C@@H]1NC(=O)[C@@H]2CCCN2Cc2cnn(c2)-c2cccc(c2)C(=O)NCCNC(=O)CNC1=O
ring closure, isolated yield (from C#CCN1CCC[C@H]1C(=O)N[C@@H](CC(C)C)C(=O)NCC(=O)NCCNC(=O)c1cccc(-[n+]2cc([N-]C(=O)NCc3ccc4ccc5cccc6ccc3c4c56)on2)c1, 21-membered ring): 79%

O=C1CCCCCCCCCCNC(=O)c2cccc(c2)-n2cc(cn2)CNC(=O)CN1 [S5 -> CyP5]
ring closure, isolated yield (from C#CCNC(=O)CNC(=O)CCCCCCCCCCNC(=O)c1cccc(-[n+]2cc([N-]C(=O)NCc3ccc4ccc5cccc6ccc3c4c56)on2)c1, 24-membered ring): 68%

CC(C)C[C@@H]1NC(=O)c2cccc(c2)-n2cc(cn2)CNC(=O)[C@H](C)NC1=O [3-(sydnonimine-pyrene)benzoyl-Leu-Ala-NH-propargyl]
ring closure, isolated yield (from C#CCNC(=O)[C@H](C)NC(=O)[C@H](CC(C)C)NC(=O)c1cccc(-[n+]2cc([N-]C(=O)NCc3ccc4ccc5cccc6ccc3c4c56)on2)c1, 15-membered ring): 68%

O=C1CCc2cnn(c2)-c2cccc(c2)C(=O)Nc2ccc(cc2)Oc2cccc(c2)Oc2ccc(cc2)N1 [S8 -> CyP8]
ring closure, isolated yield (from C#CCCC(=O)Nc1ccc(Oc2cccc(Oc3ccc(NC(=O)c4cccc(-[n+]5cc([N-]C(=O)NCc6ccc7ccc8cccc9ccc6c7c89)on5)c4)cc3)c2)cc1, 25-membered ring): 72%

O=C1CCCCCCCCCCNC(=O)c2cccc(c2)-n2cc(cn2)CN1 [S4 -> CyP4]
ring closure, isolated yield (from C#CCNC(=O)CCCCCCCCCCNC(=O)c1cccc(-[n+]2cc([N-]C(=O)NCc3ccc4ccc5cccc6ccc3c4c56)on2)c1, 21-membered ring): 65%

COC(=O)[C@@H]1CCCCNC(=O)c2cccc(c2)-n2cc(cn2)CCCC(=O)N1 [hex-5-ynoyl-Lys(Nε-3-(sydnonimine-pyrene)benzoyl)-OMe]
ring closure, isolated yield (from C#CCCCC(=O)N[C@@H](CCCCNC(=O)c1cccc(-[n+]2cc([N-]C(=O)NCc3ccc4ccc5cccc6ccc3c4c56)on2)c1)C(=O)OC, 18-membered ring): 76%

O=C1CCCCNC(=O)c2cccc(c2)-n2cc(cn2)CN1 [S2 -> CyP2]
ring closure, isolated yield (from C#CCNC(=O)CCCCNC(=O)c1cccc(-[n+]2cc([N-]C(=O)NCc3ccc4ccc5cccc6ccc3c4c56)on2)c1, 15-membered ring): 75%
